Measurements reported in patent US5153173A, “N-acyl derivatives of the peptidoglycan monomer, pharmaceutically acceptable salts thereof, their preparation and use as immunomodulators and immunoadjuvants” (Pliva Farmaceutska, priority 1990, dated 1992).
“And” between values parts separate entries of the source, which are not always exact repeats. Equal values may be shown once.

What was measured:
[1] = tested on: PFC (plaque forming cells); assay: Number of PFC (plaque forming cells), method of Jerne, in CBA mice; format: in vivo, CBA male mice; settings: for Abs. PFC, % (control = 100) / PFC/l mil, % (control = 100) / PFC/l mil / Abs. PFC: CBA male mice, single i.v. dose 200 μg/mouse; for Abs. PFC, % (control = 100) / PFC/l mil, % (control = 100): relative to control of the same experiment; for PFC/l mil: PFC per 10^6 spleen lymphocytes; for PFC/l mil / Abs. PFC: value ± spread; for Abs. PFC: total number of PFC; for PFC activity with respect to the number of the spleen lymphocytes, significance / increase of PFC / overall PFC activity, significance (words): Student t-test versus control
Protocol: (§1) The biological activity of the claimed compounds was tested on CBA male mice, 2-2.5 months old. The animals had been adapting to the laboratory conditions at least one week prior to each testing. The effectiveness of the N-acyl derivative of PGM was compared with the results achieved in control mice goups which were administered a physiological solution (negative control) and the original PGM (positive control). All tested substances were administered to the organism by intravenous (i.v.) route in a single dose of 200 μg/mouse and 10 mg/kg resp. The following effects of the immunopharmacological activity were surveyed: spleen weight, number of lymphocytes and number of PFC (plaque forming cells) according to the method of Jerne (in: Cell Bound Antibodies, Whister Institute Press, Philadelphia (1963), p.109). The spleen weight is expressed in mg. The number of the spleen lymphocytes is expressed as the absolute number in 1 ml, whereas the PFC are expressed by way of their total number and by their activity 10^6 spleen lymphocytes. The test groups and the corresponding control groups resp. comprised each 5-7 mice. The activity of each N-acyl derivative of PGM was examined at least three times in various periods. The statistical analysis was performed with the parametric Student t-test, applying the original computer programme Stat Works. The significance of the differences was assessed by two-tailed test at the level of acceptance equal or less than 5%. The summarized results of the effects of individual N-acyl derivatives on the parameters of immune response are listed in Table 1.

[2] = Spleen weight of CBA mice after a single i.v. dose; format: in vivo, CBA male mice; settings: for Spleen weight, % (control = 100) / Spleen weight: CBA male mice, single i.v. dose 200 μg/mouse (10 mg/kg); for Spleen weight, % (control = 100): relative to control of the same experiment; for Spleen weight: value ± spread; for change in the spleen weight: differences to control not significant, tendency of improved activity; for increase in the spleen weight in comparison to the control values: statistically significant, CBA mice, i.v. 200 μg/mouse
Protocol: as §1

[3] = tested on: spleen lymphocytes; assay: Number of spleen lymphocytes of CBA mice after a single i.v. dose; format: in vivo, CBA male mice; parameters: No spleen cells: unit not given beside the values; settings: for No spleen cells, % (control = 100) / No spleen cells: CBA male mice, single i.v. dose 200 μg/mouse; for No spleen cells, % (control = 100): relative to control of the same experiment; for reduction of the number of spleen lymphocytes in comparison to the control values / increase of the number of the spleen lymphocytes: absolute number in 1 mL; for reduction of the number of spleen lymphocytes in comparison to the control values / effect upon the number of spleen lymphocytes / increase of the number of the spleen lymphocytes: CBA mice, i.v. 200 μg/mouse; for No spleen cells: absolute number of spleen lymphocytes in 1 ml, value ± spread
Protocol: as §1

[4] = Eur. J. Cancer Oncol. 19 (1983); Cancer Immunol. Immunother. 15 (1983), 18 (1984); cited from earlier work
[5] = Z. Immun.-Forsch. 155 (1979), 312-328; cited from earlier work
[6] = cited from earlier work
[7] = tested on: immune response; assay: Overall immunopharmacological activity (cellular and humoral immunity) in CBA mice; format: in vivo, CBA male mice; settings: for involvement in the humoral immunity / effect on the cellular immune response: conclusion from Table 1
Protocol: as §1

Compound | Abs. PFC, % (control = 100) [1] | PFC/l mil, % (control = 100) [1] | PFC/l mil [1] | Abs. PFC [1] | Spleen weight, % (control = 100) [2] [%] | Spleen weight [2] [mg] | change in the spleen weight [2] | No spleen cells, % (control = 100) [3] | reduction of the number of spleen lymphocytes in comparison to the control values [3] | No spleen cells [3] | PFC activity with respect to the number of the spleen lymphocytes, significance [1] | other results
Na-salt of N-pivaloyl-PGM [Pivaloyl PGM] | 110% | 118% | 163.8 ± 52.95 | 76.4 ± 24.94 | 107 | 125.5 ± 19.44 | relative increase | 94% | 4-6% | 42.9 ± 9.82 | – | –
CC(=O)NC1C(OC2C(CO)OC(O)C(NC(C)=O)C2OC(C)C(=O)NC(C)C(=O)NC(CCC(=O)NC(CCCC(N)C(=O)O)C(=O)NC(C)C(=O)NC(C)C(=O)O)C(N)=O)OC(CO)C(O)C1O (centres unmarked) [PGM, peptidoglycan monomer] | 159% and 139% and 119% and 102% and 100% and 105% and 112% and 135% | 128% and 116% and 111% and 96% and 102% and 118% and 150% | 156.1 ± 102.78 and 190.4 ± 79.53 and 117.1 ± 48.37 and 214.4 ± 95.61 and 163.6 ± 72.39 and 141.4 ± 40.57 and 219.1 ± 96.98 and 206.9 | – | – | – | – | 122% and 87% and 113% and 94% and 93% and 102% and 90% | – | – | – | antimetastatic activity [4]: antimetastatic activity; immunomodulating activity [5]: immunomodulating; Spleen weight, % (control = 100) ([2]; 10 mg/kg): 115% and 107% and 104% and 103% and 106% and 102%; solubility in organic solvents ([6]; organic solvents): insoluble; solubility in water ([6]; water): well water-soluble
sodium salt of N-stearoyl-PGM [Stearoyl PGM] | 126% | 118% | 219.2 ± 67.11 | 93.4 ± 37.55 | 113 | 123.6 ± 18.63 | – | 100% | – | 37.8 ± 6.90 | – | increase in the spleen weight in comparison to the control values [2]: 13%; effect upon the number of spleen lymphocytes [3]: no effect
sodium salt of N-oleoyl-PGM [Oleoyl PGM] | 113% | 109% | 210.8 ± 88.40 | 97.1 ± 41.86 | 121 | 131.7 ± 14.40 | – | 103% | – | 42.3 ± 7.96 | – | increase in the spleen weight in comparison to the control values [2]: 21%; increase of the number of the spleen lymphocytes [3]: 3-9%
Na-salt of N-benzoyl-PGM [Benzoyl PGM] | 138% | 142% | 282.1 | 95.7 ± 28.45 | 114 | 113.4 ± 22.28 | relative increase | 100% | – | 34.1 ± 9.56 | clearly expressed enhancing tendency | involvement in the humoral immunity [7]: more significantly involved; increase of PFC / overall PFC activity, significance (words) ([1]; listed as N-benzoyl): statistically significant difference; increase of PFC / overall PFC activity, significance (words) ([1]; listed as benzoyl): significant effect; effect upon the number of spleen lymphocytes [3]: no effect
Na-salt of N-capriloyl-PGM [Capriloyl PGM] | 159% | 126% | 154.2 ± 111.12 | 88.5 ± 75.95 | 100 | 120.4 ± 12.36 | – | 119% | – | 46.1 ± 11.70 | – | effect on the cellular immune response [7]: significant effect; increase of the number of the spleen lymphocytes [3]: 19%
NA-salt of N-acetyl-PGM [Acetyl PGM] | 111% | 119% | 202.7 ± 91.97 | 85.8 ± 33.17 | 106 | 112.3 ± 12.08 | – | 96% | 4-6% | 41.9 ± 5.66 | clearly expressed enhancing tendency | –
Na-salt of N-lauroyl-PGM [Lauroyl PGM] | 162% | 155% | 254.2 | 125.4 ± 68.45 | 112 | 135.5 ± 22.60 | relative increase | 79% | 20% | 45.2 ± 8.50 | statistically significant difference | activity in comparison with the original PGM ([7]; administered in the same concentration): superior activity; effect on the cellular immune response [7]: significant effect; involvement in the humoral immunity [7]: more significantly involved; increase of PFC / overall PFC activity, significance (words) ([1]; listed as N-lauroyl): statistically significant difference; increase of PFC / overall PFC activity, significance (words) ([1]; listed as lauroyl): significant effect
